# Measurements published in patent publication US9738634B2, “Heterocyclic amide compound and herbicide” (SYNGENTA PARTICIPATIONS AG, priority 2013, dated 2017).
# Key:
# Type in all cases: in vivo
# Conditions in all cases: treatment dosage 320 g/ha
# [1] = system: oval-leafed pondweed; assay: Test Example 2: weedkilling efficacy, growth period weed treatment in the submerged state; C: oval-leafed pondweed
# In short: (§1)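 Barnyard grass, bulrush and oval-leafed pondweed sown in alluvial soil under 4 cm flooding, greenhouse 25 to 30° C. At 1-2 leaf stage, water-diluted emulsion applied to the water surface at stated g/ha dosages; effects scored 3 weeks later.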
# [2] = system: catchweed; assay: Test Example 3: weedkilling efficacy through soil treatment; O: catchweed
# In short: (§2)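 Crop and weed responses were judged three weeks after a uniform surface spray of the water-diluted emulsion at the given g/ha rate. Seeds sat beneath about 1.5 cm of sterilized diluvial soil, and boxes stood in a greenhouse at 25 to 30° C.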
# [3] = system: Italian ryegrass; assay: Test Example 3: weedkilling efficacy through soil treatment; I: Italian ryegrass
# In short: as §2
# [4] = system: wild oat; assay: Test Example 3: weedkilling efficacy through soil treatment; G: wild oat
# In short: as §2
# [5] = system: redroot pigweed; assay: Test Example 4: weedkilling efficacy by foliar treatment; L: redroot pigweed
# In short: (§3)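 Seeds are spot-sown into sterilized diluvial soil and covered with about 1.5 cm of soil. After 14 days' greenhouse growth at 25 to 30° C, plants are sprayed on stems and leaves with diluted emulsion at the stated g/ha rate, then scored at 3 weeks.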
# [6] = system: Indian mallow; assay: Test Example 4: weedkilling efficacy by foliar treatment; K: Indian mallow
# In short: as §3
# [7] = system: common wind-grass; assay: Test Example 3: weedkilling efficacy through soil treatment; J: common wind-grass
# In short: as §2
# [8] = system: beet; assay: Test Example 4: foliar treatment, effect on crop; f: beet
# In short: as §3
# [9] = system: redroot pigweed; assay: Test Example 3: weedkilling efficacy through soil treatment; L: redroot pigweed
# In short: as §2
# [10] = system: Indian mallow; assay: Test Example 3: weedkilling efficacy through soil treatment; K: Indian mallow
# In short: as §2
# [11] = system: Italian ryegrass; assay: Test Example 4: weedkilling efficacy by foliar treatment; I: Italian ryegrass
# In short: as §3
# [12] = system: fig-leafed goosefoot; assay: Test Example 3: weedkilling efficacy through soil treatment; M: fig-leafed goosefoot
# In short: as §2
# [13] = system: corn; assay: Test Example 3: soil treatment, effect on crop; c: corn
# In short: as §2
# [14] = system: crabgrass; assay: Test Example 3: weedkilling efficacy through soil treatment; D: crabgrass
# In short: as §2
# [15] = system: bulrush; assay: Test Example 2: weedkilling efficacy, growth period weed treatment in the submerged state; B: bulrush
# In short: as §1
# [16] = system: transplanted rice; assay: Test Example 1: preemergent weed treatment in the submerged state, effect on crop; a: transplanted rice
# In short: (§4)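 Visual scores against set criteria were taken 3 weeks after treatment. Compounds, as diluted emulsions at specified g/ha, went onto the water surface of 4 cm-flooded alluvial soil pots on the day weeds were sown and 2.5-leaf rice was transplanted; greenhouse held 25–30 °C.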
# [17] = system: birds-eye speedwell; assay: Test Example 4: weedkilling efficacy by foliar treatment; p: birds-eye speedwell
# In short: as §3
# [18] = system: green foxtail; assay: Test Example 3: weedkilling efficacy through soil treatment; E: green foxtail
# In short: as §2
# [19] = system: rapeseed; assay: Test Example 3: soil treatment, effect on crop; g: rapeseed
# In short: as §2
# [20] = system: barnyard grass; assay: Test Example 2: weedkilling efficacy, growth period weed treatment in the submerged state; A: barnyard grass
# In short: as §1
# [21] = system: soybean; assay: Test Example 3: soil treatment, effect on crop; d: soybean
# In short: as §2
# [22] = system: green foxtail; assay: Test Example 4: weedkilling efficacy by foliar treatment; E: green foxtail
# In short: as §3
# [23] = system: rapeseed; assay: Test Example 4: foliar treatment, effect on crop; g: rapeseed
# In short: as §3
# [24] = system: wild oat; assay: Test Example 4: weedkilling efficacy by foliar treatment; G: wild oat
# In short: as §3
# [25] = system: fig-leafed goosefoot; assay: Test Example 4: weedkilling efficacy by foliar treatment; M: fig-leafed goosefoot
# In short: as §3
# [26] = system: crabgrass; assay: Test Example 4: weedkilling efficacy by foliar treatment; D: crabgrass
# In short: as §3
# [27] = system: common wind-grass; assay: Test Example 4: weedkilling efficacy by foliar treatment; J: common wind-grass
# In short: as §3
# [28] = system: barnyard grass; assay: Test Example 4: weedkilling efficacy by foliar treatment; F: barnyard grass
# In short: as §3
# [29] = system: wheat; assay: Test Example 4: foliar treatment, effect on crop; e: wheat
# In short: as §3
# [30] = system: barnyard grass; assay: Test Example 3: weedkilling efficacy through soil treatment; F: barnyard grass
# In short: as §2
# [31] = system: corn; assay: Test Example 4: foliar treatment, effect on crop; c: corn
# In short: as §3
# [32] = system: beet; assay: Test Example 3: soil treatment, effect on crop; f: beet
# In short: as §2
# [33] = system: oval-leafed pondweed; assay: Test Example 1: weedkilling efficacy, preemergent weed treatment in the submerged state; C: oval-leafed pondweed
# In short: as §4
# [34] = system: bulrush; assay: Test Example 1: weedkilling efficacy, preemergent weed treatment in the submerged state; B: bulrush
# In short: as §4
# [35] = system: black-grass; assay: Test Example 3: weedkilling efficacy through soil treatment; H: black-grass
# In short: as §2
# [36] = system: birds-eye speedwell; assay: Test Example 3: weedkilling efficacy through soil treatment; p: birds-eye speedwell
# In short: as §2
# [37] = system: soybean; assay: Test Example 4: foliar treatment, effect on crop; d: soybean
# In short: as §3
# [38] = system: chickweed; assay: Test Example 3: weedkilling efficacy through soil treatment; N: chickweed
# In short: as §2
# [39] = system: black-grass; assay: Test Example 4: weedkilling efficacy by foliar treatment; H: black-grass
# In short: as §3
# [40] = system: catchweed; assay: Test Example 4: weedkilling efficacy by foliar treatment; O: catchweed
# In short: as §3
# [41] = system: wheat; assay: Test Example 3: soil treatment, effect on crop; e: wheat
# In short: as §2
# [42] = system: directly sown rice; assay: Test Example 3: soil treatment, effect on crop; b: directly sown rice
# In short: as §2
# [43] = system: directly sown rice; assay: Test Example 4: foliar treatment, effect on crop; b: directly sown rice
# In short: as §3
# [44] = system: barnyard grass; assay: Test Example 1: weedkilling efficacy, preemergent weed treatment in the submerged state; A: barnyard grass
# In short: as §4
# [45] = system: chickweed; assay: Test Example 4: weedkilling efficacy by foliar treatment; N: chickweed
# In short: as §3
structure (smiles),measurement,setting,value
CC1=C(c2ccccc2)C(=O)N(C(C)(C)C(=O)Nc2cc(C(F)F)ccn2)CO1 [B-2-54],C (oval-leafed pondweed) weedkilling efficacy grade,[1],"5 (weed kill ratio 90% or more, (practically complete withering))"
same,O (catchweed) weedkilling efficacy grade,[2],"4 (weed kill ratio 70% or more, less than 90%)"
same,I (Italian ryegrass) weedkilling efficacy grade,[3],"5 (weed kill ratio 90% or more, (practically complete withering))"
same,G (wild oat) weedkilling efficacy grade,[4],"5 (weed kill ratio 90% or more, (practically complete withering))"
same,L (redroot pigweed) weedkilling efficacy grade,[5],"4 (weed kill ratio 70% or more, less than 90%)"
same,K (Indian mallow) weedkilling efficacy grade,[6],"4 (weed kill ratio 70% or more, less than 90%)"
same,J (common wind-grass) weedkilling efficacy grade,[7],"5 (weed kill ratio 90% or more, (practically complete withering))"
same,f (beet) effect on crop grade,[8],"4 (weed kill ratio 70% or more, less than 90%)"
same,L (redroot pigweed) weedkilling efficacy grade,[9],"4 (weed kill ratio 70% or more, less than 90%)"
same,K (Indian mallow) weedkilling efficacy grade,[10],"3 (weed kill ratio 40% or more, less than 70%)"
same,I (Italian ryegrass) weedkilling efficacy grade,[11],"5 (weed kill ratio 90% or more, (practically complete withering))"
same,M (fig-leafed goosefoot) weedkilling efficacy grade,[12],"3 (weed kill ratio 40% or more, less than 70%)"
same,c (corn) effect on crop grade,[13],"2 (weed kill ratio 20% or more, less than 40%)"
same,D (crabgrass) weedkilling efficacy grade,[14],"5 (weed kill ratio 90% or more, (practically complete withering))"
same,B (bulrush) weedkilling efficacy grade,[15],"5 (weed kill ratio 90% or more, (practically complete withering))"
same,a (transplanted rice) effect on crop grade,[16],"5 (weed kill ratio 90% or more, (practically complete withering))"
same,P (birds-eye speedwell) weedkilling efficacy grade,[17],"4 (weed kill ratio 70% or more, less than 90%)"
same,E (green foxtail) weedkilling efficacy grade,[18],"5 (weed kill ratio 90% or more, (practically complete withering))"
same,g (rapeseed) effect on crop grade,[19],"4 (weed kill ratio 70% or more, less than 90%)"
same,A (barnyard grass) weedkilling efficacy grade,[20],"5 (weed kill ratio 90% or more, (practically complete withering))"
same,d (soybean) effect on crop grade,[21],0 (weed kill ratio 5% or less (practically no effect))
same,E (green foxtail) weedkilling efficacy grade,[22],"5 (weed kill ratio 90% or more, (practically complete withering))"
same,g (rapeseed) effect on crop grade,[23],"4 (weed kill ratio 70% or more, less than 90%)"
same,G (wild oat) weedkilling efficacy grade,[24],"5 (weed kill ratio 90% or more, (practically complete withering))"
same,M (fig-leafed goosefoot) weedkilling efficacy grade,[25],"4 (weed kill ratio 70% or more, less than 90%)"
same,D (crabgrass) weedkilling efficacy grade,[26],"5 (weed kill ratio 90% or more, (practically complete withering))"
same,J (common wind-grass) weedkilling efficacy grade,[27],"5 (weed kill ratio 90% or more, (practically complete withering))"
same,F (barnyard grass) weedkilling efficacy grade,[28],"5 (weed kill ratio 90% or more, (practically complete withering))"
same,e (wheat) effect on crop grade,[29],0 (weed kill ratio 5% or less (practically no effect))
same,F (barnyard grass) weedkilling efficacy grade,[30],"5 (weed kill ratio 90% or more, (practically complete withering))"
same,c (corn) effect on crop grade,[31],"3 (weed kill ratio 40% or more, less than 70%)"
same,f (beet) effect on crop grade,[32],"4 (weed kill ratio 70% or more, less than 90%)"
same,C (oval-leafed pondweed) weedkilling efficacy grade,[33],"5 (weed kill ratio 90% or more, (practically complete withering))"
same,B (bulrush) weedkilling efficacy grade,[34],"5 (weed kill ratio 90% or more, (practically complete withering))"
same,H (black-grass) weedkilling efficacy grade,[35],"5 (weed kill ratio 90% or more, (practically complete withering))"
same,P (birds-eye speedwell) weedkilling efficacy grade,[36],"5 (weed kill ratio 90% or more, (practically complete withering))"
same,d (soybean) effect on crop grade,[37],"4 (weed kill ratio 70% or more, less than 90%)"
same,N (chickweed) weedkilling efficacy grade,[38],"4 (weed kill ratio 70% or more, less than 90%)"
same,H (black-grass) weedkilling efficacy grade,[39],"5 (weed kill ratio 90% or more, (practically complete withering))"
same,O (catchweed) weedkilling efficacy grade,[40],"4 (weed kill ratio 70% or more, less than 90%)"
same,e (wheat) effect on crop grade,[41],0 (weed kill ratio 5% or less (practically no effect))
same,b (directly sown rice) effect on crop grade,[42],"5 (weed kill ratio 90% or more, (practically complete withering))"
same,b (directly sown rice) effect on crop grade,[43],"5 (weed kill ratio 90% or more, (practically complete withering))"
same,A (barnyard grass) weedkilling efficacy grade,[44],"5 (weed kill ratio 90% or more, (practically complete withering))"
same,N (chickweed) weedkilling efficacy grade,[45],"4 (weed kill ratio 70% or more, less than 90%)"
